The results in this text go back to a melting point compilation (Tetko et al.).

A word on the melting point: it is the temperature of the solid-liquid transition.

`O=S(=O)(Cl)c1cccc(-c2nnco2)c1`: the melting point lay within 87 to 89 °C. Next, `O=C(O)CCS(=O)(=O)c1ccc2c(c1)OCCCO2`: 109 to 111 °C.

For the compound `CC(SCc1nc2ccccc2c(=O)[nH]1)C(=O)O` (stereo not given), the melting point lay in the range of 204 to 206 °C.

The compound `Cc1cc(-c2cccc(F)c2)nnc1Cl` returned a melting point of 132 to 134 °C. Regarding `O=C(O)/C=C/c1ccc(OCc2ccccn2)cc1`, the melting point lay within 210 to 212 °C. In the case of `Oc1ccc(Sc2ccncc2)cc1`, the melting point fell in the range of 239 to 241 °C. Compound `CSc1nn(C)c(N)c1C#N` gave a melting point of 123 to 125 °C. With `O=C(O)c1cc2ccccc2c(Cl)n1` the figure was 202 to 204 °C; with `COc1ccc(CC(N)=NO)cc1OC`, 135 to 137 °C. With `Nc1cccc(-n2cc[nH]c2=O)c1` the figure was 155 to 157 °C; with `Cc1ccc(S(=O)(=O)N2CCCCC2C(=O)O)cc1` (stereo not given), 100 to 102 °C; with `CC1CCc2[nH]c3ccc(C(=O)O)cc3c2C1` (stereo not given), 218 to 220 °C. Take `O=C1COc2c(Cl)cccc21`: the melting point is 108 to 110 °C. With `Nc1cccc(-c2ccc(Cl)c(Cl)c2)c1` the figure was 97 to 99 °C; with `COc1ccccc1C(=O)c1ccccn1`, 49 to 51 °C; with `O=C(O)Cn1ncc(=O)c2ccccc21`, 120 to 122 °C. As for `CCOc1ccc(-c2csc(N)n2)cc1`, the melting point fell in the range of 248 to 250 °C. For the compound `CC1CNC(=Nc2ccc(C(C)C)cc2)S1` (stereo not given), the melting point is 109 to 111 °C.

As for `CCN(CC)S(=O)(=O)c1ccc(Cl)c(N)c1`, the melting point was in the range of 84 to 88 °C. With `O=C(CCl)N1CCN(S(=O)(=O)c2ccc([N+](=O)[O-])cc2)CC1` the figure was 187 to 189 °C; with `CCC(CC)C(=O)N1CCC(=NO)CC1`, 101 to 103 °C; with `O=C(O)c1coc(-c2ccccc2Cl)n1`, 179 to 181 °C. For the compound `O=C1OCCN1c1cc([N+](=O)[O-])ccc1Cl`, the melting point was 157 to 159 °C. With `CN1C(=O)CC(C(=O)O)C1c1ccc(Cl)c(F)c1` (stereo not given) the figure was 225 to 227 °C; with `COc1cccc(C(=O)c2c[nH]c3ncccc23)c1`, 139 to 141 °C; with `Nc1cnn(Cc2ccc(Cl)cc2)c1`, 49 to 51 °C.

Compound `N#Cc1ccc(S(=O)(=O)NC2CC2)cc1` registered a melting point of 99 to 101 °C. Next, `NC1CCCCNC1=O` (stereo not given): 54 to 56 °C; `C=CC(=O)NC(N)=O`: 169 to 171 °C.

Compound `O=C(O)c1ccc2c(=O)n3c(nc2c1)CCCCC3` came in with a melting point of 276 to 278 °C. With `O=C(O)c1ccc(-c2ccc(-c3ccccc3)cc2)s1` the figure was 272 to 274 °C. Take `CS(=O)(=O)C1CCCCC1=O` (stereo not given): the melting point lay in the range of 69 to 71 °C. `O=C(O)C1CCC2CCCCC2C1` (stereo not given) had a melting point of 57 to 59 °C.

Regarding `Nc1sc2c(c1-c1nc3ccccc3[nH]1)CCCC2`, the melting point lay in the range of 175 to 177 °C. `Nc1ccc(Cl)c(S(N)(=O)=O)c1`: the melting point is 161 to 163 °C. With `CC(C)(C)c1nn(-c2ccccc2)c(Cl)c1C=O` the figure was 34 to 36 °C; with `CCN1CCCC1CN=C=S` (stereo not given), 43 to 45 °C; with `O=C(O)c1c[nH]c2cc(F)ccc12`, 228 to 230 °C. The compound `O=C(O)Cc1ccc(NC(=O)c2ccc(Br)o2)cc1` returned a melting point of 199 to 201 °C. On to `N#Cc1ccc(Cl)cc1[N+](=O)[O-]`, for which the melting point was in the range of 95 to 100 °C. Take `O=C1NCCN2CCCC12` (stereo not given): the melting point fell in the range of 73 to 75 °C. As to `O=Cc1csc(-c2cccc(Br)c2)n1`, the melting point was 99 to 101 °C. Consider `NC(=O)NC(CC(=O)O)c1ccc(Cl)cc1` (stereo not given), for which the melting point was in the range of 198 to 200 °C. For the compound `COc1ccccc1NC(=O)c1ccc(NC(=O)CCl)cc1`, the melting point is 103 to 106 °C. `O=C(O)C1(S(=O)(=O)c2ccc(Cl)cc2)CCCC1`: the melting point lay within 83 to 85 °C.

As to `CC(=O)c1ccc(S(=O)(=O)NCc2ccco2)cc1`, the melting point is 107 to 109 °C. `CNC1(C(=O)O)CCc2ccccc21` (stereo not given) displayed a melting point of 279 to 281 °C. Compound `C1CN(CCC23CC4CC(CC(C4)C2)C3)CCN1` displayed a melting point of 76 to 78 °C. Regarding `O=C1NC(=O)C(c2ccccc2)(C(F)(F)F)N1` (stereo not given), the melting point fell in the range of 240 to 242 °C. Next, `Clc1nc(CN2CCCCC2)nc2sc3c(c12)CCC3`: 75 to 77 °C; `CC(=O)NCCc1ccc(C(C)=O)cc1`: 94 to 96 °C.

With `Cc1cc(Cl)ccc1OCCCC(=O)NN`, the melting point lay in the range of 37 to 39 °C. In turn, `O=C(O)C1CCN(S(=O)(=O)c2cc(F)ccc2F)CC1` displayed a melting point of 149 to 151 °C. In turn, `CC(C)(C)c1nn(-c2ccccc2Cl)cc1C=O` displayed a melting point of 111 to 113 °C. With `O=C(O)C1CC1c1ccco1` (stereo not given) the figure was 51 to 53 °C; with `O=C(O)CC1c2ccccc2Oc2ccccc21`, 153 to 155 °C; with `ClCc1ncc(-c2ccccc2)o1`, 63 to 65 °C. With `COC(=O)c1n[nH]c2ccccc12` the figure was 159 to 161 °C; with `CN(C)S(=O)(=O)c1ccc(O)c(N)c1`, 154 to 156 °C. `OCc1cc2ccccc2nc1Cl` had a melting point of 163 to 165 °C. For the compound `O=C(O)CS(=O)c1ccc([N+](=O)[O-])cc1` (stereo not given), the melting point lay in the range of 178 to 180 °C.

Compound `NC(=O)COCc1ccccc1` had a melting point of 92 to 94 °C.

`CCC1=NN(C)C(=O)C1` yielded a melting point of 89 to 91 °C. Next, `CC1CC(=O)c2c(O)ccc(Cl)c21` (stereo not given): 55 to 57 °C; `O=C(O)c1ccc(Cl)c(S(=O)(=O)NCc2ccco2)c1`: 133 to 135 °C. Next, `O=C(O)CCNc1ccc(C(F)(F)F)cc1[N+](=O)[O-]`: 130 to 134 °C.

With `Nc1c(Cl)cc(Cl)c2c1N=S=N2`, the melting point fell in the range of 176 to 178 °C. In turn, `CN(C(=O)CSc1ccccc1C(=O)O)C1CCCCC1` came in with a melting point of 102 to 104 °C. The compound `O=Cc1cc(O)cc(Br)c1O` registered a melting point of 145 to 147 °C. With `CCOC(=O)CC(=O)c1[nH]c(C)c(C(=O)OCC)c1C` the figure was 141 to 143 °C; with `O=C(O)CCCNCc1ccccn1`, 69 to 71 °C. With `NNC(=O)CSc1ccccc1F` the figure was 131 to 133 °C; with `N#Cc1ccc(N2CCNCC2)c(F)c1`, 84 to 86 °C; with `CC(NC(=O)OC(C)(C)C)c1ccc(CN)cc1` (stereo not given), 78 to 80 °C. With `Cc1nc(C(=O)O)c[nH]1` the figure was 239 to 241 °C.

`Cc1ccc(-c2nnc(S)o2)cc1` had a melting point of 266 to 268 °C. With `O=C(NC1CC1)c1ccc(Br)cc1F` the figure was 111 to 113 °C; with `CN(CC(=O)Nc1c(Cl)cccc1Cl)C(=O)CCl`, 188 to 190 °C. Next, `CC(C)(C)n1cnc(N)n1`: 135 to 137 °C; `N#CCN(CC#N)C(=O)CCCl`: 62 to 64 °C; `O=c1[nH]cnc2scc(-c3ccc(F)cc3)c12`: 231 to 233 °C. With `Nc1ccc(Cl)c(S(=O)(=O)N2CCCCC2)c1` the figure was 92 to 96 °C; with `CN(C)S(=O)(=O)c1ccc(F)c([N+](=O)[O-])c1`, 118 to 120 °C. As for `COC(=O)Nc1cccc(N)c1`, the melting point fell in the range of 62 to 64 °C.

In turn, `COC(=O)c1ccccc1CS(=O)(=O)F` showed a melting point of 89 to 91 °C.
